# Experimental data as given in ChEMBL document CHEMBL4507286 (2021).
# Tests used:
# [1] = target: Mitogen-activated protein kinase 15 (Homo sapiens) (UniProt Q8TD08)
# [2] = target: AP2-associated protein kinase 1 (Homo sapiens) (UniProt Q2M2I8)
# [3] = target: Proto-oncogene tyrosine-protein kinase Src (Homo sapiens) (UniProt P12931)
# [4] = target: Serine/threonine-protein kinase 32A (Homo sapiens) (UniProt Q8WU08)
# [5] = target: RAF proto-oncogene serine/threonine-protein kinase (Homo sapiens) (UniProt P04049)
# [6] = target: Calcium/calmodulin-dependent protein kinase type 1 (Homo sapiens) (UniProt Q14012)
# [7] = target: Muscarinic acetylcholine receptor M4 (Homo sapiens) (UniProt P08173); conditions: Compound concentration 10.0 uM
# [8] = tested on: Fibroblast growth factor receptor 3 (Homo sapiens), P22607 [G697C]
# [9] = target: Cyclin-dependent kinase-like 1 (Homo sapiens) (UniProt Q00532)
# [10] = target: Calcium/calmodulin-dependent protein kinase type 1D (Homo sapiens) (UniProt Q8IU85)
# [11] = target: Ephrin type-B receptor 1 (Homo sapiens) (UniProt P54762)
# [12] = target: Muscarinic acetylcholine receptor M3 (Homo sapiens) (UniProt P20309); conditions: Compound concentration 10.0 uM
# [13] = target: Serine/threonine-protein kinase 32B (Homo sapiens) (UniProt Q9NY57)
# [14] = target: cAMP-dependent protein kinase catalytic subunit alpha (Homo sapiens) (UniProt P17612)
# [15] = target: Phosphatidylinositol 4,5-bisphosphate 3-kinase catalytic subunit gamma isoform (Homo sapiens) (UniProt P48736)
# [16] = target: Cyclin-dependent kinase 17 (Homo sapiens) (UniProt Q00537)
# [17] = target: Rhodopsin kinase GRK7 (Homo sapiens) (UniProt Q8WTQ7)
# [18] = target: 5-hydroxytryptamine receptor 2B (Homo sapiens, UniProt P41595); conditions: Compound concentration 10.0 uM
# [19] = target: Mitogen-activated protein kinase kinase kinase 20 (Homo sapiens) (UniProt Q9NYL2)
# [20] = target: Ephrin type-A receptor 3 (Homo sapiens) (UniProt P29320)
# [21] = target: Serine/threonine-protein kinase TAO2 (Homo sapiens) (UniProt Q9UL54)
# [22] = target: Serine/threonine-protein kinase SIK2 (Homo sapiens) (UniProt Q9H0K1)
# [23] = target: Megakaryocyte-associated tyrosine-protein kinase (Homo sapiens) (UniProt P42679)
# [24] = target: Sodium-dependent serotonin transporter (Homo sapiens) (UniProt P31645); conditions: Compound concentration 10.0 uM
# [25] = tested on: Tyrosine-protein kinase ABL1 (Homo sapiens), P00519 [F317L]
# [26] = tested on: Epidermal growth factor receptor (Homo sapiens), P00533 [UNDEFINED MUTATION]
# [27] = target: ALK tyrosine kinase receptor (Homo sapiens) (UniProt Q9UM73)
# [28] = target: Tyrosine-protein kinase ABL2 (Homo sapiens) (UniProt P42684)
# [29] = tested on: Epidermal growth factor receptor (Homo sapiens), P00533 [L858R]
# [30] = target: Mitogen-activated protein kinase kinase kinase 5 (Homo sapiens) (UniProt Q99683)
# [31] = tested on: Epidermal growth factor receptor (Homo sapiens), P00533 [L861Q]
# [32] = target: Rho-associated protein kinase 1 (Homo sapiens) (UniProt Q13464)
# [33] = target: Cyclin-dependent kinase 2 homolog (Plasmodium falciparum (isolate 3D7)) (UniProt P61075)
# [34] = target: Dual specificity mitogen-activated protein kinase kinase 5 (Homo sapiens) (UniProt Q13163)
# [35] = target: Mitogen-activated protein kinase kinase kinase 13 (Homo sapiens) (UniProt O43283)
# [36] = target: Dual specificity tyrosine-phosphorylation-regulated kinase 2 (Homo sapiens) (UniProt Q92630)
# [37] = tested on: Epidermal growth factor receptor (Homo sapiens), P00533 [UNDEFINED MUTATION]; remark: listed apart in the source
# [38] = target: Dual specificity mitogen-activated protein kinase kinase 1 (Homo sapiens) (UniProt Q02750)
# [39] = target: 5-hydroxytryptamine receptor 2A (Homo sapiens) (UniProt P28223); conditions: Compound concentration 10.0 uM
# [40] = target: Ribosomal protein S6 kinase alpha-3 (Homo sapiens) (UniProt P51812)
# [41] = target: Epidermal growth factor receptor (Homo sapiens) (UniProt P00533)
# [42] = target: Serine/threonine-protein kinase PAK 1 (Homo sapiens) (UniProt Q13153)
# [43] = tested on: Mast/stem cell growth factor receptor Kit (Homo sapiens), P10721 [V559D]
# [44] = target: NUAK family SNF1-like kinase 2 (Homo sapiens) (UniProt Q9H093)
# [45] = target: Activin receptor type-1-like (Homo sapiens) (UniProt P37023)
# [46] = Compound concentration 1000.0 nM
# [47] = Compound concentration 100.0 nM
# Sequence of Rhodopsin kinase GRK7 (Homo sapiens) (Q8WTQ7 whole entry): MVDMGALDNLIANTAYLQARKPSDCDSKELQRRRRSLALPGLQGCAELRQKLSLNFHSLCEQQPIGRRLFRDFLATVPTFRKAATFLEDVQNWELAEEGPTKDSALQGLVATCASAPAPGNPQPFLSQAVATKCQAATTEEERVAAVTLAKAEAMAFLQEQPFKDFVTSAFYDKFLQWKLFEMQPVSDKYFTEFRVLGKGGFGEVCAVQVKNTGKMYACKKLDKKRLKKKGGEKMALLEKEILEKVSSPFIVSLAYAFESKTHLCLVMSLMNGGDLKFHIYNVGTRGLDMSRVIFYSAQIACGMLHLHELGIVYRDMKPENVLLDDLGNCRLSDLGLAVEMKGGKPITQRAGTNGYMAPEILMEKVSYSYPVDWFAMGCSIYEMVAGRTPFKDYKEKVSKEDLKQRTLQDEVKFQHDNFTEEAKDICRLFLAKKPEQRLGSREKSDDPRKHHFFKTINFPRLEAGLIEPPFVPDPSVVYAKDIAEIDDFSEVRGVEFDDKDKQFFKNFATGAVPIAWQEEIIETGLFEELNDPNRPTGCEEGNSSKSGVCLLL
# Sequence of Calcium/calmodulin-dependent protein kinase type 1D (Homo sapiens) (Q8IU85 whole entry, looked up): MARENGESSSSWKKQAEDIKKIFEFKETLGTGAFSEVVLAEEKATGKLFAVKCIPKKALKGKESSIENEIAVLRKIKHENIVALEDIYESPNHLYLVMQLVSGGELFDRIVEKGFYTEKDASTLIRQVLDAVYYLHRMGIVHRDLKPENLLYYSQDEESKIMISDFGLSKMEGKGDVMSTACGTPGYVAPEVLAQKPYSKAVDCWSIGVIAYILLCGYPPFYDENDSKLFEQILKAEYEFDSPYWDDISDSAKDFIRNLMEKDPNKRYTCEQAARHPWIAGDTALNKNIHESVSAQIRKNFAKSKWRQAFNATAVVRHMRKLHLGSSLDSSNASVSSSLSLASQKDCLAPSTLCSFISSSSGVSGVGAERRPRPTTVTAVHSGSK
# Sequence of Cyclin-dependent kinase 2 homolog (Plasmodium falciparum (isolate 3D7)) (P61075 whole entry): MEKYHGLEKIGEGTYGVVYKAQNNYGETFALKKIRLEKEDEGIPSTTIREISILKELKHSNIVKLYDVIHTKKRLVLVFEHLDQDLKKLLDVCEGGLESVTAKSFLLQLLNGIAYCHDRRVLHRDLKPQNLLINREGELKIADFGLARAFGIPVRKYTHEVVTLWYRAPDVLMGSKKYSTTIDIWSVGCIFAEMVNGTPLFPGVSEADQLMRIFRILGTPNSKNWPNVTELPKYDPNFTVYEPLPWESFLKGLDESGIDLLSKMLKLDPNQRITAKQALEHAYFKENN
# Sequence of Cyclin-dependent kinase 17 (Homo sapiens) (Q00537 whole entry, looked up): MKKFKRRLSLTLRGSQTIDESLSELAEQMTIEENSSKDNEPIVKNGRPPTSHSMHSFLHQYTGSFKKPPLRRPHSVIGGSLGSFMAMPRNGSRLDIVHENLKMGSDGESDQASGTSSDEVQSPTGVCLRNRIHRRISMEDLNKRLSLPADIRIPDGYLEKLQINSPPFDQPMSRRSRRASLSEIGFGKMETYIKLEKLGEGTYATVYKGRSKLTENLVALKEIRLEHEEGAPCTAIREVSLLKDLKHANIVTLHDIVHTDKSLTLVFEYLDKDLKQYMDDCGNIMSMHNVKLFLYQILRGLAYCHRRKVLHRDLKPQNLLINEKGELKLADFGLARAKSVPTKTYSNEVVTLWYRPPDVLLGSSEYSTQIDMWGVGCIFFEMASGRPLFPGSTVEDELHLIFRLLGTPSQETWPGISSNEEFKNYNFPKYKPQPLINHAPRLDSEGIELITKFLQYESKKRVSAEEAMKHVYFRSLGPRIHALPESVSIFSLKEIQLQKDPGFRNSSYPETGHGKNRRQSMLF
# Sequence of 5-hydroxytryptamine receptor 2B (P41595 whole entry): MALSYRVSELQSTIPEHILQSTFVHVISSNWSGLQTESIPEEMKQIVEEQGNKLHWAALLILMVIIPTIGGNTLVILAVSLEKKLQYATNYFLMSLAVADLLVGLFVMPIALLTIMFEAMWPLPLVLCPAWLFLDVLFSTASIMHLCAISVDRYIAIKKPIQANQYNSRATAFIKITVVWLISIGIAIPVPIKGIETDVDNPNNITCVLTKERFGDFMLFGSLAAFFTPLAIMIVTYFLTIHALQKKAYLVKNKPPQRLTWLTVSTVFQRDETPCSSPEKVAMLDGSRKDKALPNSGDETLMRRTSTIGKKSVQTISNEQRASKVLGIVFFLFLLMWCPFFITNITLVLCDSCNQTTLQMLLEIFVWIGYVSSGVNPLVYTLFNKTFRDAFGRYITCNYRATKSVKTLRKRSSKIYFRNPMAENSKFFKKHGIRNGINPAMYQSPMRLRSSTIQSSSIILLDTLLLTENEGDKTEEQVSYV
# Sequence of Muscarinic acetylcholine receptor M4 (Homo sapiens) (P08173 whole entry): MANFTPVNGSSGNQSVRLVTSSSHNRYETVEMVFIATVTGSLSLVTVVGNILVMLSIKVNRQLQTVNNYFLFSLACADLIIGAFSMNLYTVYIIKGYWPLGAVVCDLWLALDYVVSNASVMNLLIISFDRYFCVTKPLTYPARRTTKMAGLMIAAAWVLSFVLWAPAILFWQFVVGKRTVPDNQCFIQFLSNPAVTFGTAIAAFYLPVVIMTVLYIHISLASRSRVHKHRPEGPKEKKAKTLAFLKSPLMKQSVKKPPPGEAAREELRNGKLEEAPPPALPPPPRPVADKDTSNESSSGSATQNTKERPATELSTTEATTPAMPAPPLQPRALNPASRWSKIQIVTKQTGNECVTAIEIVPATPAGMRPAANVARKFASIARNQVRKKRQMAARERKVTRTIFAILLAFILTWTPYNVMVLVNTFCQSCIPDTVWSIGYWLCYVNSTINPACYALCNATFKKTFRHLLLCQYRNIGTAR
# Sequence of Serine/threonine-protein kinase SIK2 (Homo sapiens) (Q9H0K1 whole entry, looked up): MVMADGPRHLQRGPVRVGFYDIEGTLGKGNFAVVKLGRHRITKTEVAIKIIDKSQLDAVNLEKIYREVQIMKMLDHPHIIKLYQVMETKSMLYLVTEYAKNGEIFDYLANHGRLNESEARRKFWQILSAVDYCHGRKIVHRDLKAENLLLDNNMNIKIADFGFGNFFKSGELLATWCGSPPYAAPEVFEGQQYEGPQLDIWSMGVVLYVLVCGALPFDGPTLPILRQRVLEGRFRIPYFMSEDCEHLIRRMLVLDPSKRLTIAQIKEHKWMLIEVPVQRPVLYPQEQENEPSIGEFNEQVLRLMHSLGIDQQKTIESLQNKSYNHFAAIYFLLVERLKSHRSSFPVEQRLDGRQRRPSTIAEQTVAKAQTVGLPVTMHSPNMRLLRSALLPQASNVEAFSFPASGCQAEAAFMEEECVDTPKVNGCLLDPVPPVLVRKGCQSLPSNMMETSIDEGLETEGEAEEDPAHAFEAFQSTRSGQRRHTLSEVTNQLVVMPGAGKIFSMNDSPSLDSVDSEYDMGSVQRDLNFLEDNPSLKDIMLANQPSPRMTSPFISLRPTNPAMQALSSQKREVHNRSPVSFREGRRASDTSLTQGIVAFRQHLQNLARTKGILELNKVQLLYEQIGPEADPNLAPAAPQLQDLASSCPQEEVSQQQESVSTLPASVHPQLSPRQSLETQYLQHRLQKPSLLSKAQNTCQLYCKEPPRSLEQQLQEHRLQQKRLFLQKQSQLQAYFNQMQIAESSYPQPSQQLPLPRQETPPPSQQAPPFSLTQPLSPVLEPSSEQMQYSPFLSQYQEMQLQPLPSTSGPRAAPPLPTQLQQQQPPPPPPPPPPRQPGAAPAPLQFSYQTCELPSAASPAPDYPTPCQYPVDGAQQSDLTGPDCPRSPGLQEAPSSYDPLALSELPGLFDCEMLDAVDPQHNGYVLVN
# Sequence of NUAK family SNF1-like kinase 2 (Homo sapiens) (Q9H093 whole entry): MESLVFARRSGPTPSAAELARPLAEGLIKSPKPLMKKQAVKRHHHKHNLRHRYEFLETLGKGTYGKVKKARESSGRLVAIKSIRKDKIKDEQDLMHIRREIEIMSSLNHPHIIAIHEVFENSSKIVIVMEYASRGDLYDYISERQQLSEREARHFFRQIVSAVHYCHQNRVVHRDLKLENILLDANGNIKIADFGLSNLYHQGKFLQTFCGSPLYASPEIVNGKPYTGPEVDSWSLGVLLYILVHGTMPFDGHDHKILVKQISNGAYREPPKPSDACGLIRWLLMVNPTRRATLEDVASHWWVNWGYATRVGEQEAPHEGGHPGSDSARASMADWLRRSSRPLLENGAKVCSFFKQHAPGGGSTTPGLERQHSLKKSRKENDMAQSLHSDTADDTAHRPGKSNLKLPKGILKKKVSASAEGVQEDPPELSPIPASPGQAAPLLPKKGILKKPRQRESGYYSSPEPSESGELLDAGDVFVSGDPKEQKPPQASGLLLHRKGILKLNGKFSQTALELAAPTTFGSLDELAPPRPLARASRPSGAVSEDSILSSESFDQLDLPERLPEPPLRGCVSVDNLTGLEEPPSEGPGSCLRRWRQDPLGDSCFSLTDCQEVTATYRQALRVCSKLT
# Sequence of Serine/threonine-protein kinase PAK 1 (Homo sapiens) (Q13153 whole entry): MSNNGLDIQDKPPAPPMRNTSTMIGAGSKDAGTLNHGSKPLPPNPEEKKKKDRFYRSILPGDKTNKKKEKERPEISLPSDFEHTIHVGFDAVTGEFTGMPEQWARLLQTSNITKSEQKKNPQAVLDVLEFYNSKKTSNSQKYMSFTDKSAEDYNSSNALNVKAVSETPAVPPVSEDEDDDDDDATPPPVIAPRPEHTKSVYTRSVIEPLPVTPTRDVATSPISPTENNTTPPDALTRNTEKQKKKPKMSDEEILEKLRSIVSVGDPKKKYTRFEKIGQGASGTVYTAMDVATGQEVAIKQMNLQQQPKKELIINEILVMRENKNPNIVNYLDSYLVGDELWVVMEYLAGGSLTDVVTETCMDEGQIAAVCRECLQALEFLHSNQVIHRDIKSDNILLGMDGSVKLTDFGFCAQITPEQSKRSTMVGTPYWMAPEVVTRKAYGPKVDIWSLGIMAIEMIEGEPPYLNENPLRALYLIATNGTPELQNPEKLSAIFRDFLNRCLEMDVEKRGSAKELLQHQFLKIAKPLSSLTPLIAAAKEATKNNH
structure (smiles),measurement,setting,value
C[C@H](NC(=O)Nc1cc2[nH]ncc2c(CO)n1)c1ccccn1 [ERKi-NC],residual activity,[1]; [46],100%
same,residual activity,[2]; [46],100%
same,residual activity,[3]; [46],100%
same,residual activity,[4]; [46],100%
same,residual activity,[5]; [46],90.2%
same,residual activity,[6]; [46],100%
same,inhibition,[7],18.7%
same,residual activity,[8]; [46],100%
same,residual activity,[9]; [46],78.8%
same,residual activity,[10]; [46],100%
same,residual activity,[11]; [46],100%
same,inhibition,[12],-1.84%
same,residual activity,[13]; [46],100%
same,residual activity,[14]; [46],87.7%
same,residual activity,[15]; [46],100%
same,residual activity,[16]; [46],78%
same,residual activity,[17]; [46],100%
same,inhibition,[18],90.9%
same,residual activity,[19]; [46],74.7%
same,residual activity,[20]; [46],100%
same,residual activity,[21]; [46],82.3%
same,residual activity,[22]; [46],94%
same,residual activity,[23]; [46],100%
same,inhibition,[24],-0.787%
same,residual activity,[25]; [46],91.9%
same,residual activity,[26]; [46],34.7%
same,residual activity,[27]; [46],85.4%
same,residual activity,[28]; [46],100%
same,residual activity,[29]; [46],100%
same,residual activity,[30]; [46],100%
same,residual activity,[31]; [46],100%
same,residual activity,[32]; [46],66%
same,residual activity,[33]; [46],91.1%
same,residual activity,[34]; [46],17.6%
same,residual activity,[35]; [46],100%
same,residual activity,[36]; [46],100%
same,residual activity,[37]; [46],100%
same,residual activity,[38]; [46],97.6%
same,inhibition,[39],7.64%
same,residual activity,[40]; [46],80.7%
same,residual activity,[41]; [46],100%
same,residual activity,[42]; [46],100%
same,residual activity,[43]; [46],100%
same,residual activity,[44]; [46],100%
same,residual activity,[45]; [46],92.3%
C[C@@H](NC(=O)Nc1cc2[nH]ncc2c(CO)n1)c1ccccc1 [ERKi],residual activity,[1]; [47],37.1%
same,residual activity,[2]; [47],52.5%
same,residual activity,[3]; [47],94.6%
same,residual activity,[4]; [47],100%
same,residual activity,[5]; [47],100%
same,residual activity,[6]; [47],67.1%
same,inhibition,[7],-0.569%
same,residual activity,[8]; [47],100%
same,residual activity,[9]; [47],81.1%
same,residual activity,[10]; [47],83.3%
same,residual activity,[11]; [47],91.1%
same,inhibition,[12],-5.17%
same,residual activity,[13]; [47],96.6%
same,residual activity,[14]; [47],91.8%
same,residual activity,[15]; [47],96.4%
same,residual activity,[16]; [47],95.9%
same,residual activity,[17]; [47],81.4%
same,inhibition,[18],13.1%
same,residual activity,[19]; [47],100%
same,residual activity,[20]; [47],79.4%
same,residual activity,[21]; [47],74.7%
same,residual activity,[22]; [47],85.7%
same,residual activity,[23]; [47],72.1%
same,inhibition,[24],2.86%
same,residual activity,[25]; [47],82.1%
same,residual activity,[26]; [47],55.9%
same,residual activity,[27]; [47],89.9%
same,residual activity,[28]; [47],83.9%
same,residual activity,[29]; [47],86.7%
same,residual activity,[30]; [47],100%
same,residual activity,[31]; [47],100%
same,residual activity,[32]; [47],64.7%
same,residual activity,[33]; [47],80.1%
same,residual activity,[34]; [47],89.1%
same,residual activity,[35]; [47],100%
same,residual activity,[36]; [47],59.3%
same,residual activity,[37]; [47],92.2%
same,residual activity,[38]; [47],79.8%
same,inhibition,[39],7.44%
same,residual activity,[40]; [47],70%
same,residual activity,[41]; [47],80.6%
same,residual activity,[42]; [47],79.1%
same,residual activity,[43]; [47],88.3%
same,residual activity,[44]; [47],76%
same,residual activity,[45]; [47],90.9%
